Laboratory results: patent US10253085B2, “CD31 peptides for the treatment of thrombotic or autoimmune disorders” (INSERM (INSTITUT NATIONAL DE LA SANTE ET DE LA RECHERCHE …, priority 2008, dated 2019)
Entries after “also recorded” stand apart in the source; their conditions may differ.

Columns and labels:
[1] = test system: spleen cells from C57Bl/6 (CD31^+/+) mice; experiment: Proliferation in response to TCR stimulation, CD31+/+ spleen cells; assay type: cell-based, mouse; conditions: peptide 25, 50, 100 μM; scramble peptide 100 μM
Description: CD8^+ T cell-mediated cytolytic activity against allogeneic mouse aortic smooth muscle cells and measurement of macrophage gelatinase (MMP-2/9) activity were performed as previously described for human cells in Caligiuri et al. (2006 Arterioscler Thromb Vasc Biol 26:618-623) using kits and reagents from Invitrogen. Briefly, primary cultures of FVB/N mouse aorta smooth muscle cells were labelled with the lipophylic tracer DIO (green) and co-cultured for 3 hours with CD8+ T cell-enriched spleen cells from C57Bl/6 mice (n=3 scramble peptide and n=3 peptide 551-574, 50 μM). Cytolysis was evaluated by intracellular accumulation of propidium iodide (PI). Cells were analysed by flow cytometry and the % of cytolysis was calculated by expressing the number of dead (PI+) cells among the target (DIO+) cells. Intracellular MMP-2/9 (gelatinase) activity was measured by flow cytometry in 7-day bone-marrow derived macrophages from C57Bl/6 mice (n=3 scramble peptide and n=3 peptide 551-574, 50 μM) three hours after the incorporation of OregonGreen® gelatine (MFI). T-cell proliferation was performed using either human peripheral blood mononuclear cells of spleen cells from C57Bl/6 (CD31^+/+) and CD31^−/− mice (Charles River France) as previously described (Caligiuri et al. 2005 Arterioscler Thromb Vasc Biol 25:1659-1664). Briefly, cells were plated in triplicates at 0.2×10^6 cells/well in a U bottom 96-well plate in complete medium (RPMI 1640, 1% pyruvate, 1% glutamine, 1% penicillin-streptomicyne-fungizone, 10% decomplemented fetal calf serum, all from Invitrogen) containing 1 μg/ml anti-mouse CD3/CD28 or 5 μg/ml anti-human CD3 antibodies (BD) as appropriate. CD31 (551-574) and scramble peptide at 25, 50 and 100 μM final concentration were deposited in the wells just before cell plating. Plated cells were cultured for 72 hours in 5% CO2 at 37° C. (^3H) thymidine (0.5 μCi/well) was added for the last 16 hours and proliferation evaluated using a Tomtec harvester and analysis on a Wallac micro beta counter. Data are expressed as mean±SEM of cpm in triplicates.

[2] = test system: BALB/c mice primed with TNCB; experiment: Delayed type hypersensitivity (DTH) suppression model; assay type: in vivo, mouse; conditions: single subcutaneous administration; peptide 10, 50, 100 μM; scramble 100 μM
Description: Delayed type hypersensitivity (DTH) suppression was evaluated as described in the “Current Protocols in Immunology (2001) 4.0.1-4.0.2 Unit 4.2”. Briefly, TNCB (2-chloro-1,3,5-trinitrobenzene, Fluka #79874) was dissolved in acetone/olive oil (1:1 v/v) at a concentration of 10 mg/ml. BALB/c mice (n=6/group) were primed by painting the shaved regions of the abdomen a with a total 0.2 ml of the preparation (n=6/group). The experiment included 3 groups for peptide 551-574 (10, 50, 100 μM) and 1 group treated with scramble peptide at 100 μM). Five days after priming, 10 μl of the TNCB-solvent mixture was painted on the right pinna, 30 minutes after subcutaneous (interscapolar) administration of the peptide 551-574 or the scramble peptide. Ear thickness increases were calculated by subtracting the thickness of the right and the left pinna of each mouse (right-left/left×100), measured at 24 h with a dial caliper (“Pocotest”, Kroeplin Längenmesstechnick). The measure was performed 5 times on each ear and averaged for further analysis. The immunosuppressive effect of the peptide was calculated as % suppression=(1−ΔTE/ΔTS)×100, where ΔT=(ear thickness 24 hr after elicitation)−(baseline ear thickness), […]. Data are expressed as mean±SEM.

[3] = test system: C57BL/6J mice immunized with MOG35-55 peptide; experiment: Experimental Autoimmune Encephalomyelitis (EAE) model; assay type: in vivo, mouse
Description: Twelve-week old female C57BL/6J mice were immunized with 300 μg of MOG35-55 peptide emulsified in Complete Freund's Adjuvant 1:1 by volume containing 800 μg of nonviable desiccated Mycobacterium tuberculosis H37RA. A final volume of 200 μl of the emulsion was injected subcutaneously at 4 sites (50 μl/site) over the flanks. In addition, 300 ng of Pertussis toxin was injected intravenously (retro-orbital plexus) on the same day and 2 days later. Clinical signs of EAE ware assessed daily by the following scoring system: 0, no signs; 1, hindlimb weakness; 2, hindlimb weakness and tail paralysis; 3, hindlimb and tail paralysis; 4, hindlimb and tail paralysis and forelimb weakness; 5, moribund state; and 6, death. The peak (waxing phase) occured around day 21. In this C57BL/6J mouse model, there was no waning phase as assessed in our laboratory up to day 41.
The experiment was carried out with ten mice per group. The mice of each group were treating with either of: • PBS; • PepReg (SEQ ID NO: 3); or • PepScra (SEQ ID NO: 14).
The dosing was of 50 μg of peptide per mice and per day (i.e. about 2 mg/Kg per day). The peptide was administered by a subcutaneous injection.

T-cell activation = experiment: In vitro inhibition of T-cell activation (summary statements); assay type: cell-based
T cell proliferation = experiment: Suppression of T cell proliferation by [H3] thymidin incorporation, long culture; assay type: cell-based, mouse; conditions: culture at 37° C. in 10% serum
[4] = test system: CD4+ cells from C57Bl6 mice; experiment: CD4+ T cell activation, early activation marker CD69 by flow cytometry; assay type: cell-based, mouse; conditions: 18 hours culture
Description: Alternatively, the T-cell proliferation assay may comprise comparing expression levels of the early activation marker CD69 in T-cells cultured either in the presence or in the absence of the compound to be tested. This assay may for example be performed as follows: • providing purified CD4+ cells (e.g. purified from C57B16 mice); • stimulating said CD4+ cells by addition of anti-CD3 purified antibodies and bone marrow derived dendritic cells; • culturing the cells for about 18 hours; and • analyzing said cells for the expression of the early activation marker CD69, e.g. by flow cytometry; and • comparing CD69 expression in the presence of the compound to be tested.
The immunosuppressive properties of PepReg (10aa) vs the 23 aa parent peptide were evaluated in vitro. Negatively purified CD4+ cells from C57Bl6 mice were stimulated by soluble anti-CD3 purified antibodies and bone marrow derived dendritic cells. Cells from triplicate wells were analyzed for the expression of the early activation marker CD69 after 18 hours culture in complete RPMI medium supplemented with 10% fetal calf serum.

[5] = associated with disease protection

NH2 - SMPAVRSRFSATSLVTLKSRWPK -COOH (H-SMPAVRSRFSATSLVTLKSRWPK-OH) [scramble peptide, scramble peptide used as control for the 23-mer, reference compound]
proliferation of CD31+/+ spleen cells in response to TCR stimulation [1]: No effect; also recorded: ineffective | suppression of distal recall of a hapten-elicited specific immune response (ear thickness) [2]: ineffective

scrambled peptide: scramble peptide of SEQ ID NO: 14 used as control for PepReg; sequence not printed (WPKLRKFVAV; scramble peptide) [reference compound]
beneficial effect in EAE model ([3]; 50 μg per mice per day subcutaneous): beneficial, although less than PepReg

VRVFLAPWKK (mouse-derived CD31 peptide) [PepReg, ten COOH terminal amino acids of mouse CD31 peptide]
inhibition of T-cell activation (T-cell activation): capable of inhibiting T-cell activation | persistence of suppression of T cell proliferation (T cell proliferation): up to 7 days | infiltration of IL17+ and IFNg+ T helper CD4+ cells in the central nervous system [3, 5]: reduced infiltration | proportion of regulatory CD25+/foxP3 CD4+ cells in the central nervous system [3, 5]: increased proportion | clinical score of EAE activity (paralysis level) ([3]; plateau phase (Days 21 through to 35), 50 μg per mice per day subcutaneous): reducing disease extension | clinical score of EAE activity (paralysis level) ([3]; waxing phase (Day 15), 50 μg per mice per day subcutaneous): arresting disease development | dose at which suppression of CD69 expression was observed [4]: 50 µg/mL | suppression of T cell activation (percentage of CD4 cells expressing CD69) ([4]; anti-CD3 and dendritic cells): at least as efficient as the 23aa peptide

LAPWKK (mouse or human-derived CD31 peptide) [SEQ ID NO: 2]
inhibition of T-cell activation (T-cell activation): capable of inhibiting T-cell activation
